Results from US7968572B2, “Nitrogen-containing heterocyclic compound and pharmaceutical application thereof” (Ono Pharmaceuticals Co., Ltd., priority 2005, dated 2011).

Experiments:
[1] = biological target: T1, recombinant human p38α MAP kinase (Homo sapiens, UniProt Q16539); test: Study on p38α MAP kinase inhibitory activity (ATF2 phosphorylation, Alpha Screen); type: biochemical; conditions: biotinylated ATF2 substrate, 30° C. for 30 minutes
T1 construct: purchased Upstate Biotechnology #14-251
T1 sequence (Q16539 whole entry): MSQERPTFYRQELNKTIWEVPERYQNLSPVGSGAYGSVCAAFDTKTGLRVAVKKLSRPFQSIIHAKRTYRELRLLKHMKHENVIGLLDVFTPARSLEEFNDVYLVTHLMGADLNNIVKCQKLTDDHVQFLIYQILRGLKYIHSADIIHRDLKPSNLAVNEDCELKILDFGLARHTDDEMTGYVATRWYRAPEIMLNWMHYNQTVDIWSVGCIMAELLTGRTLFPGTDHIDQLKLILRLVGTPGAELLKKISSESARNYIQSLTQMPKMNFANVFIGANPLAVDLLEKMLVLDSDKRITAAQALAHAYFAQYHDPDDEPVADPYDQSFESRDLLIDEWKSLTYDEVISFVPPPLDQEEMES
Procedure: Study on p38α MAP Kinase Inhibitory Activity
Using activating transcription factor-2 (hereinafter abbreviated to ATF2) which is a substrate for p38α MAP kinase, the inhibitory action of the compounds of the present invention was investigated on the phosphorylation by a recombinant human p38α MAP kinase.
A kinase buffer (25 mM Tris-HCl (pH 7.5), 5 mM β-glycerophosphate, 2 mM dithiothreitol, 0.1 mM Na3VO4, 10 mM MgCl2) containing a recombinant human p38α MAP kinase (Upstate Biotechnology #14-251) was added to a 384-well plate (5 μL) (6.25 ng protein/well) for fluorescence measurement. After addition of a kinase buffer (5 μL) containing the compound of the present invention, the resulting mixture was incubated at room temperature for 20 minutes. A substrate mixture (5 μL) of biotinylated ATF2 of 5 μg/mL (Upstate Biotechnology #14-432), adenosine triphosphate (90 μmol/L) (Sigma #FL-AAS) and anti-phosphorylated ATF2 antibody (20-fold dilution) (Cell Signaling Technology #9221L) prepared separately was added thereto, and enzyme reaction was carried out at 30° C. for 30 minutes. After the reaction, Hepes buffer (5 μL) containing 0.25% BSA and 100 mM EDTA was added to stop the enzyme reaction. The amount of a complex of the phosphorylated ATF2 and anti-phosphorylated ATF2 antibody produced by the reaction was measured using an Alpha Screen™ Rabbit Detection kit (Packard #6760607).
The p38α MAP kinase inhibitory activity, which is the effect of the compound of the present invention, was calculated as an inhibition rate (%) according to the following equation: Inhibition rate (%)={(AC−AX)/(AC−AB)}×100
wherein AB is a measured value without addition of the enzyme;
AC is a measured value with addition of the enzyme in the absence of a test compound; and
AX is a measured value with addition of the enzyme in the presence of a test compound.
(§1) Inhibition rate of compounds with each concentration was calculated, and a value indicating 50% inhibition (IC50) was determined from the inhibition curve.

[2] = tested on: TNF-α production stimulated by lipopolysaccharide (LPS) in THP-1; test: Inhibitory activity against TNF-α production using human cell lines (LPS-stimulated THP-1); type: cell-based; conditions: 1.5 h, THP-1 cells, LPS stimulation, 90 minutes at 37° C., TNF-α by ELISA
Procedure: Inhibitory Activity against TNF-α Production using Human Cell Lines
Using THP-1 which is a human monocytic cell line, the inhibitory effect of the compound of the present invention against TNF-α production stimulated by lipopolysaccharide (LPS) was studied.
Each 50 μL of lipopolysaccharide (LPS; 055:B5, Difco) prepared to a concentration of 40 ng/mL using RPMI-1640 medium containing 10% fetal calf serum (hereinafter abbreviated to RPMI-1640) and RPMI-1640 containing the compound of the present invention was added to a 96-well plate for cell culture. 100 μL of the cell suspension of THP-1 (Dainippon Pharmaceutical Co., Ltd, #06-202) prepared to a cell density of 2×10^6 cells/mL using RPMI-1640 was added and cultured for 90 minutes at 37° C. in an incubator (5% CO2, 95% air). After completion of the reaction, the culture medium supernatant was recovered and the amount of produced TNF-α was measured using an ELISA kit (Invitrogen, #850090192).
The inhibitory activity against TNF-α production, which is the effect of the compound of the present invention, was calculated as an inhibition rate (%) by the following equation: Inhibition rate (%)={(AC−AX)/(AC−AB)}×100
wherein AB is a measured value without LPS induction;
AC is a measured value with LPS induction in the absence of a test compound; and
AX is a measured value with LPS induction in the presence of a test compound.
as §1

[3] = tested on: TNF-α production induced by lipopolysaccharide (LPS) in rats; test: Rat cytokine-production model; type: in vivo; conditions: male SD rat, oral 0.3 mg/kg, LPS 10 μg/kg intravenously after 8 hours, plasma TNF-α ninety minutes after LPS; read-out: Inhibition rate (%) (Dose of compound: 0.3 mg/kg)
Procedure: Rat Cytokine-Production Model
The in vivo effect of the compound of the present invention was studied on TNF-α production induced by lipopolysaccharide (LPS) in rats.
A vehicle containing the compound of the present invention was orally administered to male SD rat (Charles River Japan, Inc.), and after 8 hours, lipopolysaccharide (LPS, 055:B5, Difco) was intravenously administered at the dose of 10 μg/kg (5 animals/group). Only a vehicle was orally administered to a control group (5 animals). Ninety minutes after the LPS treatment, heparinized blood collection was performed via the abdominal vena cava under anesthesia with ether, and blood plasma was obtained by centrifugation (12,000 rpm, 3 minutes, 4° C.). The obtained blood plasma sample was stored at −80° C. until it was used. TNF-α in the blood plasma was measured using an ELISA kit from R&D System (#RTA00).
The inhibitory activity of the compound of the present invention against TNF-α production was calculated as an inhibition rate (%) according to the following equation: Inhibition rate (%)={(AC−AX)/AC}×100
wherein AC is a measured value in case where no test compound was administered under LPS induction, and
AX is a measured value in case where a test compound was administered under LPS induction.

[4] = Evaluation of artificial lipid membrane binding using a Biacore S51 system
Procedure: Evaluation of Artificial Lipid Membrane Binding using a Biacore S51 (Registered Trademark) System
Using an aspirator, 10 mM of 1,2-dioleoyl-sn-glycero-3-phosphate monosodium salt (hereinafter abbreviated to DOPA) chloroform solution was evaporated to be dryness, and 0.6 mL of PBS/5% dimethyl sulfoxide (hereinafter abbreviated to DMSO) was added thereto. After carrying out thorough suspension by vortex, freezing and thawing were repeated for 5 times. Liposomes were prepared using a liposome preparation device (manufactured by Avestin Inc.) and two syringes and diluted to be 0.5 mM with PBS/5% DMSO just before the immobilization.
Each compound having a final concentration in PBS/5% DMSO of 50 μM was prepared by adding 38 μL of 1× PBS to 2 μL of 10 mM DMSO solution and further adding 360 μL of 1× PBS/5% DMSO and measured.
All of the following analyses were carried out using the Biacore S51 (registered trademark) system, and the measuring conditions were set up by Biacore S51 Control Software.
The measuring temperature was set to be 37° C., and PBS/5% DMSO (pH 7.4 or pH 6.0) was used as the buffer. Series S Sensor Chip L1 was used as the sensor chip. DOPA was immobilized on one of the measuring spots on the sensor surface, and the central spot was used as the reference.
Immobilization of the liposomes was carried out for about 3 minutes at a flow rate of 10 μL/minute, and then each compound was added thereto at a flow rate of 30 μL/minute to measure the interaction. The measuring conditions are as shown in the following.
Assay buffer: PBS/5% DMSO (pH 7.4 or pH 6.0)
Measuring temperature: 37° C.
Sensor chip: Series S Sensor Chip L1
Flow rate: 10 μL/minute at the time of liposome immobilization, 30 μL/minute at the time of interaction measurement
Regeneration: 20 mM CHAPS (3-[(3-cholamidopropyl)dimethylammonio]-1-propanesulfonate), an isopropanol/50 mM aqueous solution of sodium hydroxide=40/60 (volume ratio) mixed solution (60 seconds)
The data treatment was carried out in accordance with the method of Abdiche et al. (Analytical Biochemistry, 328, 233-243 (2004)) using Biacore S51 Evaluation Software.
After correcting infinitesimal error of the concentration of DMSO contained in the sample solution, the value of binding response (RU) obtained by subtracting the value of reference was divided by the sample molecular weight. Additionally, since the thus obtained value is proportional to the capturing amount of liposome, it was divided by the capturing amount at the time of the cycling and multiplied by 10^6 to be used as the correction value (correction value=1000000×RU (compound to be tested)/molecular weight (compound to be tested) RU (liposome)).
By adding propranolol, amiodarone, desipramine, imipramine and procaine as controls, it was confirmed that variation of the binding response is within about 10 to 15%.
Compounds having a binding response value after correction of 100 or more were judged positive.

[5] = tested on: Chinese hamster lung cells (CHL/IU); test: Phospholipidosis detection system using a fluorescence labeling phospholipid analog (NBD-PE); type: cell-based
Procedure: Study by a Phospholipidosis Detection System using a Fluorescence Labeling Phospholipid Analog Cell suspension (7×10^4 cells/ml) of Chinese hamster lung cells (CHL/IU) prepared using MEM (minimum essential medium) was added to a 96 well plate (96 well clear bottom plate) by 100 μL/necessary number of wells (2 wells for 1 dosage) and cultured for about 24 hours. After the culturing and subsequent removal of the supernatants on the 96 well plate, the compounds having respective concentrations prepared by dissolving or suspending in MEM medium containing 25 μmol/L of nitrobenzoxazole dipalmitoyl phosphatidyl ethanolamine (NBD-PE) (hereinafter abbreviated to NBD-PE medium) were added thereto by 100 μL/ well and treated for about 24 hours. Treating concentration of each compound was set to be 6.25, 12.5, 25, 50 or 100 μmol/L. […] In this connection, 5 wells of an untreated control (MEM medium alone) or an NBD-PE control (prepared by adding 1/100 volume of DMSO to the NBD-PE medium) were arranged for each compound and cultured in the same manner. After completion of the culturing and subsequent two times of washing with 100 μL/well of phosphate buffered saline (hereinafter abbreviated to PBS) (−), 100 μL of the MEM medium was added to all of the treated wells including two empty wells for the WST-1 background control and cultured for about 0.5 hour. Fluorescence intensity of each well was measured using a microplate reader (manufactured by Molecular Devices, SPECTRA max M2; excitation wavelength 485 nm/fluorescence wavelength 535 nm). Using average value of 2 wells for each dosage, the phospholipid increasing ratio (%) based on NBD-PE control was calculated using the following formula. Phospholipid accumulation increasing ratio (%)=100×(fluorescence intensity of substance to be tested−fluorescence intensity of untreated control)/(fluorescence intensity of NBD-PE control−fluorescence intensity of untreated control) (iii) Cytotoxicity Test The Pre value was calculated by measuring the 96 well plate which was measured in the measurement of phospholipid accumulation, using the microplate reader (manufactured by Molecular Devices, SPECTRA max M2) at a dominant wavelength of 450 nm and a correction wavelength of 690 nm. Premix WST-1 was added to the pre-measured 96 well plate by 5 μL/well. After 2 to 4 hours of culture, the Aft value was calculated by measuring in the same manner as in the Pre measurement. The background control value was subtracted from each of the measured values. Using the value obtained by subtracting the Pre value from the Aft value, the cell growth ratio (%) was calculated using the following formula.

| SMILES | IC50 [1] | IC50 [2] | inhibition at 0.3 mg/kg [3] | Binding Level (RU) ([4]; compound 50 μM, DOPA liposomes on Sensor Chip L1, 37° C., PBS/5% DMSO (pH 7.4 or pH 6.0)) | Judgment ([4]; phospholipidosis inducing activity judged from artificial lipid membrane binding) | Pospholipid accumulation increasing ratio (% of 30 uM amiodarone) (Dose of compound: 100 uM) ([5]; compound 100 uM, about 24 hours with NBD-PE) | Judgment ([5]; phospholipidosis inducing activity, NBD-PE) |
| --- | --- | --- | --- | --- | --- | --- | --- |
| Cc1cc(Cl)cc(C)c1-n1cc(-c2nc(C(C)(CO)CO)oc2-c2ccc(F)cc2F)ccc1=O [Compound 6a, 1-(4-chloro-2,6-dimethylphenyl)-5-{5-(2,4-difluorophenyl)-2-[2-hydroxy-1-(hydroxymethyl)-1-methylethyl]-1,3-oxazol-4-yl}-2(1H)-pyridinone] | 12 nM | 2.6 nM | – | – | – | – | – |
| CC(C)(O)c1nc(-c2ccc(F)cc2F)c(-c2ccc(=O)n(-c3c(F)cccc3F)c2)o1 [Compound 89 (b), 1-(2,6-difluorophenyl)-5-[4-(2,4-difluorophenyl)-2-(1-hydroxy-1-methylethyl)-1,3-oxazol-5-yl]-2(1H)-pyridinone] | 1.7 nM | 0.7 nM | 82% | 15.5 RU | Negative | – | – |
| C[C@](O)(CO)c1nc(-c2ccc(F)cc2F)c(-c2ccc(=O)n(-c3c(F)cccc3F)c2)o1 [Example 210, 1-(2,6-difluorophenyl)-5-{4-(2,4-difluorophenyl)-2-[(1S)-1,2-dihydroxy-1-methylethyl]-1,3-oxazol-5-yl}-2(1H)-pyridinone] | 5.8 nM | 0.7 nM | 49% | – | – | 8 % of 30 uM amiodarone | Negative |
